Experimental data from publication PMC10165273, “Itch receptor MRGPRX4 interacts with the receptor activity–modifying proteins” (The Journal of Biological Chemistry, 2023).
Where “and” joins values, the source holds several entries; their conditions need not be identical. Equal values may be shown once. Read-outs that look alike come from different tables or passages of the source.

How the values were obtained:
Assay type in all cases: cell-based
MRGPRX4 [1] = target: T1, MRGPRX4 (Homo sapiens, UniProt Q96LA9); test: BRET2 β-arrestin1 recruitment to MRGPRX4; settings: 100 μM agonist (Fig. 5A)
T1 construct: expressed in transfected cells; host or cells: HEK293T
T1 sequence (Q96LA9 whole entry): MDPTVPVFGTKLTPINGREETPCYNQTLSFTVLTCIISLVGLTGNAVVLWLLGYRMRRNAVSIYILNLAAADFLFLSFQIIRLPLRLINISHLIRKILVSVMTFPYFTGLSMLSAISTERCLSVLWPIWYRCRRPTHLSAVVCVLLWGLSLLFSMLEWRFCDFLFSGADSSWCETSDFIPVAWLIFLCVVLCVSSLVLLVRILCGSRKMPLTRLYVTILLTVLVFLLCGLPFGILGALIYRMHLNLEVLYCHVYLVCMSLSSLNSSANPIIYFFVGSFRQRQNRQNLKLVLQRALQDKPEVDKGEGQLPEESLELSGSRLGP
Protocol: (§1) The method for homogenous transfection of β-Arrestin and BRET^2 assay of β-Arrestin recruitment has been described previously ([51]). […] BRET^2 measurements were taken on the BioTek Synergy NEO2 microplate reader.
(§2) For MRGPRX4 DNA titration assays, HEK293T cells were cotransfected with either β-Arrestin1 or β-Arrestin2 with increasing amounts of MRGPRX4 (0.5, 1, or 2 pg/cell).
(§3) The BRET ratio for each sample was determined by calculating the ratio of the light intensity emitted by the GFP10 (515 nm) (acceptor) over the light intensity emitted by the RLuc3 (395 nm) (donor). Net BRET^2 was determined by subtracting the basal BRET^2 (β-arrestin-RLuc3 only) signal from the BRET^2 signals. All BRET values were normalized to the MRGPRX4-only condition.

MRGPRX4 [2] = target: T1, MRGPRX4; test: BRET2 β-arrestin2 recruitment to MRGPRX4; settings: 100 μM agonist (Fig. 5B, C)
From the text: as §1, §2
To measure the time-course of β-Arrestin2 recruitment to MRGPRX4 and CALCRL, the transfection and general procedure described above was followed, with the modification that Prolume Purple was added first, followed by addition of the appropriate agonists ([51]).
as §3

MRGPRX4 + RAMP1 = target: T2, MRGPRX4 + RAMP1 (Homo sapiens, UniProt Q96LA9); test: IP1 accumulation, MRGPRX4 coexpressed with RAMP1; design: key to IP1 Basal / response to agonist, X4:ramp1.I:1 / response to agonist, X4:ramp1.I:2 / response to agonist, X4:ramp1.I:0.25 / response to agonist, X4:ramp1.I:0.5: % IP1; unstimulated mock = 0%, fully stimulated MRGPRX4 = 100%; settings: for activation at 100 µM / activation at 20 µM / activation at 0.8 µM / activation at […] / activation at 0.032 µM / activation at 4 µM: 2 h, Fig S3d, read-out: IP1 accumulation; for activation at 100 µM: log [DCA] (M) -4; for activation at 20 µM: log [DCA] (M) -4.69897; for activation at 0.8 µM: log [DCA] (M) -6.09691; for activation at […]: log [DCA] (M) -6.79588; for activation at 0.032 µM: log [DCA] (M) -7.49485; for activation at 4 µM: log [DCA] (M) -5.39794; for response to agonist, X4:ramp1.I:0.25 / response to agonist, X4:ramp1.I:0.5 / response to agonist, X4:ramp1.I:1 / response to agonist, X4:ramp1.I:2: Figure 4c-f, agonist 100µM, MRGPRX4 = 100; for response to agonist, X4:ramp1.I:0.25: X4:ramp1 1:0.25; for response to agonist, X4:ramp1.I:0.5: X4:ramp1 1:0.5; for response to agonist, X4:ramp1.I:1: X4:ramp1 1:1; for response to agonist, X4:ramp1.I:2: X4:ramp1 1:2
T2 construct: expressed in transfected cells; host or cells: HEK293T
T2 sequence (Q96LA9 whole entry): as above
Protocol: HEK293T cells were transfected with 1 pg/cell of MRGPRX4 DNA, and the amount of DNA was kept constant at 2 pg/cell with pcDNA3.1(+) empty vector, unless otherwise specified. Twenty four hours after transfection, IP1 assay was performed as previously described ([51]). When applicable, cells were treated with 1 μM YM254890 (YM) or different concentrations of U73122 for 1 h prior to addition of agonist or buffer. After incubation for 2 h, HTRF reagents and IP1 calibration standards were added and incubated for 2 h in the dark at room temperature. Time-resolved fluorescence signals were read on the BioTek Synergy NEO-TRF Hybrid multi-mode reader (BioTek Instruments). All data were carried out in three independent experiments with three technical replicate each.
For a homogenous transfection of MRGPRX4, a master mix of MRGPRX4 DNA was made prior to addition of the RAMP DNA. […]
Data reduction, standard calibration, and transformation of HTRF data were performed as previously described ([51]). Normalized IP1 values were calculated relative to the unstimulated mock-transfected cells (set to 0%) and fully stimulated MRGPRX4 (alone if applicable) (set to 100%).

For C[C@H](CCC(=O)O)[C@H]1CC[C@H]2[C@@H]3CC[C@@H]4C[C@H](O)CC[C@]4(C)[C@H]3C[C@H](O)[C@]12C [DCA, deoxycholic acid], the “β-arrestin1 recruitment to MRGPRX4” value (MRGPRX4 [1]) was “did not recruit β-arrestin1”, the “β-arrestin2 recruitment to MRGPRX4” value (MRGPRX4 [2]) was “did not observe any β-arrestin2 recruitment” and the activation at 100 µM (MRGPRX4 + RAMP1; ratio MRGPRX4:RAMP1 1:0.25) was 91.8%. The activation at 20 µM (MRGPRX4 + RAMP1; ratio MRGPRX4:RAMP1 1:0.25) was 80.7%, the activation at 0.8 µM (MRGPRX4 + RAMP1; ratio MRGPRX4:RAMP1 1:0.25) was 27.4% and the activation at […] (MRGPRX4 + RAMP1; ratio MRGPRX4:RAMP1 1:0.25) was 30.3%. The activation at 0.032 µM (MRGPRX4 + RAMP1; ratio MRGPRX4:RAMP1 1:0.25) was 28.5%, the activation at 100 µM (MRGPRX4 + RAMP1; ratio MRGPRX4:RAMP1 1:0.5) was 103% and the activation at 20 µM (MRGPRX4 + RAMP1; ratio MRGPRX4:RAMP1 1:0.5) was 62.7%. It also gave an activation at 4 µM (MRGPRX4 + RAMP1; ratio MRGPRX4:RAMP1 1:0.5) of 38.6%, an activation at 0.8 µM (MRGPRX4 + RAMP1; ratio MRGPRX4:RAMP1 1:0.5) of 26.5% and an activation at […] (MRGPRX4 + RAMP1; ratio MRGPRX4:RAMP1 1:0.5) of 22.5%. The activation at 0.032 µM (MRGPRX4 + RAMP1; ratio MRGPRX4:RAMP1 1:0.5) was 22.6%, the activation at 20 µM (MRGPRX4 + RAMP1; ratio MRGPRX4:RAMP1 1:1) was 61.5% and the activation at 4 µM (MRGPRX4 + RAMP1; ratio MRGPRX4:RAMP1 1:1) was 34.6%. It also gave an activation at 0.8 µM (MRGPRX4 + RAMP1; ratio MRGPRX4:RAMP1 1:1) of 30.1%, an activation at […] (MRGPRX4 + RAMP1; ratio MRGPRX4:RAMP1 1:1) of 22.8% and an activation at 20 µM (MRGPRX4 + RAMP1; ratio MRGPRX4:RAMP1 1:2) of 59.4%. It also gave an activation at 4 µM (MRGPRX4 + RAMP1; ratio MRGPRX4:RAMP1 1:2) of 29.7%, an activation at 0.8 µM (MRGPRX4 + RAMP1; ratio MRGPRX4:RAMP1 1:2) of 22% and an activation at […] (MRGPRX4 + RAMP1; ratio MRGPRX4:RAMP1 1:2) of 15.8%. For the same molecule, the Emax (MRGPRX4 + RAMP1; Figure 4a bottom, DNA ratio MRGPRX4:RAMP1 1:0.5, MRGPRX4 alone = 100, read-out: efficacy) was 109%, the “response to agonist, X4:ramp1.I:0.25” value (MRGPRX4 + RAMP1) was 100.247 and 94.5976 and the “response to agonist, X4:ramp1.I:0.5” value (MRGPRX4 + RAMP1) was 101.591 and 94.608. The “response to agonist, X4:ramp1.I:1” value (MRGPRX4 + RAMP1) was 97.7538 and 86.0836, the “response to agonist, X4:ramp1.I:2” value (MRGPRX4 + RAMP1) was 90.6013 and 100.616 and the “IP1 Basal” value (MRGPRX4 + RAMP1; MRGPRX4 + RAMP1 0.25 pg (Fig. S3), normalized per agonist) was 25.16. For the same molecule, the Emax (MRGPRX4 + RAMP1; MRGPRX4 + RAMP1 0.25 pg (Fig. S3), normalized per agonist, read-out: IP1 Emax) was 113%, the Emax (MRGPRX4 + RAMP1; MRGPRX4 + RAMP1 0.25 pg (Fig. S3), normalized per agonist, read-out: IP1 span) was 87.7% and the “IP1 Basal” value (MRGPRX4 + RAMP1; MRGPRX4 + RAMP1 0.5 pg (Fig. S3), normalized per agonist) was 24.94. For the same molecule, the Emax (MRGPRX4 + RAMP1; MRGPRX4 + RAMP1 0.5 pg (Fig. S3), normalized per agonist, read-out: IP1 Emax) was 117%, the Emax (MRGPRX4 + RAMP1; MRGPRX4 + RAMP1 0.5 pg (Fig. S3), normalized per agonist, read-out: IP1 span) was 92% and the “IP1 Basal” value (MRGPRX4 + RAMP1; MRGPRX4 + RAMP1 1 pg (Fig. S3), normalized per agonist) was 22.25. The Emax (MRGPRX4 + RAMP1; MRGPRX4 + RAMP1 1 pg (Fig. S3), normalized per agonist, read-out: IP1 Emax) was 118%, the Emax (MRGPRX4 + RAMP1; MRGPRX4 + RAMP1 1 pg (Fig. S3), normalized per agonist, read-out: IP1 span) was 95.8% and the “IP1 Basal” value (MRGPRX4 + RAMP1; MRGPRX4 + RAMP1 2 pg (Fig. S3), normalized per agonist) was 17.30. It also gave an Emax (MRGPRX4 + RAMP1; MRGPRX4 + RAMP1 2 pg (Fig. S3), normalized per agonist, read-out: IP1 Emax) of 112% and an Emax (MRGPRX4 + RAMP1; MRGPRX4 + RAMP1 2 pg (Fig. S3), normalized per agonist, read-out: IP1 span) of 94.5%.
For C[C@H](CCC(=O)NCCS(=O)(=O)O)[C@H]1CC[C@H]2[C@@H]3CC[C@@H]4C[C@H](O)CC[C@]4(C)[C@H]3C[C@H](O)[C@]12C [TDCA, Taurodeoxycholic acid], the “response to agonist, X4:ramp1.I:0.25” value (MRGPRX4 + RAMP1) was 91.5401 and 91.7191, the “response to agonist, X4:ramp1.I:0.5” value (MRGPRX4 + RAMP1) was 85.1903 and 91.5141 and the “response to agonist, X4:ramp1.I:1” value (MRGPRX4 + RAMP1) was 95.31 and 91.9832. For the same molecule, the “response to agonist, X4:ramp1.I:2” value (MRGPRX4 + RAMP1) was 89.0717 and 99.7164.
